“And” between values parts separate entries of the source, which are not always exact repeats. Equal entries are not always repeated.

The subject of one experiment is S. epidermidis. Put plainly: 3-piece growth-chamber array (3P-GCA) biofilm growth test on bathroom tile. Format: cell-based, Staphylococcus epidermidis. The following applies: 72 hours; for optical density of extracted crystal violet (biofilm growth): S. epidermidis on standard white matte bathroom tile, two medium exchanges, replicate wells A, B, C, smaller = prevention, inoculated control 1.870-2.387; for biofilm prevention activity in 3P-GCA method (in words): S. epidermidis on white matte bathroom tile. Here is the method:
Wells in the block bottom are filled with 0.5–1 mL of the media described in Reference Example 1, and inoculated with 5–10 μL of overnight cultures of the bacterial strains described in Reference Example 1. The block bottom and top that contain a standard-size, white bathroom tile are then aligned and clamped together, and the assembly placed on a tissue culture rotator (VWR Scientific) set at a rotation speed of 1–3 rpm, or in a shaking incubator, at the appropriate temperature, for 24 hours. Optionally, the 1 mL liquid medium in each well is then replaced with fresh medium, and incubation continued for an additional 24 hours; this sequence of medium replacement and continued growth is done from 1–3 times, to generate biofilms of the desired thickness. After growth, the block bottom is removed, the liquid is removed and replaced with 200 μL of a 1% CV solution (in ˜10% ethanol). The block is then reassembled, re-positioned on the tissue culture rotator and incubated with the settings described above for 15–75 minutes to stain the biofilms. The block pieces are disassembled, and the top block that contains the tile surface is rinsed under a gentle stream of deionized water until all unbound dye is visibly removed. Optionally, any excessive dye adsorbed to the sides of the wells of the block bottom is removed using a test tube brush and a commonly available detergent formulation; this helps to reduce any background due to non-specific staining that can sometimes occur. As a faster alternative, the stained block bottom is simply interchanged with a new or pre-cleaned block bottom. Bound dye on the tile surface is then extracted by pipetting 0.5–1.0 mL of a solution of 1% sodium deoxycholate in 95% ethanol (and optionally 4–6 glass beads 1–3 mm in diameter to assist dye removal) into each well, reassembling the block top and bottom, and either repositioning on the tissue culture rotator followed by incubation using the settings described above for 0.5–2 hours, or alternatively, vortexing vigorously for 1–5 minutes. Subsequently, either undiluted or diluted (in ethanol) samples of extracted CV pipetted from the disassembled blocks are transferred to flat bottom, polystyrene microtiter plates and absorbances are measured in a microplate reader, and compared to controls, as described in Reference Example 1. […] Use of the 3P-GCA is the same as for the 2P-GCA described in Reference Example 5, except that when liquid growth media are being replaced in the wells of the block bottom, only one of the lid assemblies is removed. This arrangement has the advantage that if sensitive biofilms are being investigated, they are not disturbed at all during the entire method. If the biofilms being investigated are not sensitive to disturbance, then an additional advantage of the 3P-GCA is that it can be used to grow biofilms on both surfaces 30 of each lid assembly 90, especially if the 3P-GCA is mounted on a tissue culture rotator for biofilm growth, such that liquid growth media contacts both surfaces 30. […] Polypropylene block components are used. Data are reported as optical density measurements for 3 replicates of inoculated wells per compound tested, with 3 inoculated and three uninoculated control well replicates, corresponding to columns 1 (compound 32), 2 (compound 168), 3 (compound 226), 4 (inoculated control), and 5 (uninoculated control). Smaller numbers indicate prevention of biofilm growth.

In experiment [1] the test system is S. epidermidis strain ATCC 35984. The experiment in a line: Biofilm prevention screen (96-well microplate, crystal violet). In kind it is cell-based. The settings on record: Staphylococcus epidermidis, positive = prevention, negative = enhancement of biofilm formation, quadruplicate, read-out: average percentage reduction of biofilm formed relative to DMSO controls; for inhibition at 32 µM: ATCC35984, 32 μM; for inhibition at 160 µM: ATCC35984, 160 μM; for inhibition at 390 µM: ATCC35984, 390 μM. The method in brief:
(§1)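 Biofilm prevention is scored as percent decrease in CV-stained biomass relative to DMSO controls after 16–26 hours' growth with compound at final 250–500, 160 or 32 μM. Incubation was 30° C for both Pseudomonas strains and 37° C for S. epidermidis, with shaking.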

In experiment [2] the test system is P. fluorescens strain ATCC 13525. The experiment is described as above. In kind it is cell-based. The settings on record: Pseudomonas fluorescens, positive = prevention, negative = enhancement of biofilm formation, quadruplicate, read-out: average percentage reduction of biofilm formed relative to DMSO controls; for inhibition at 32 µM: ATCC13525, 32 μM; for inhibition at 160 µM: ATCC13525, 160 μM; for inhibition at 390 µM: ATCC13525, 390 μM. The method in brief: as §1

Consider `CCCCCCCCCCCCNC(=O)[C@@H]1CCCN1` [Compound 168], for which, in the experiment on S. epidermidis, the “optical density of extracted crystal violet (biofilm growth)” value (“optical density” for short) is 1.981 and 1.581 and 1.517; the “biofilm prevention activity in 3P-GCA method (in words)” value (from here on “biofilm prevention activity”) was “much more modest effect”. Also, in experiment [1], the inhibition at 32 µM amounted to 101%, the inhibition at 160 µM stood at 100% and the inhibition at 390 µM is 98%. In experiment [2], the inhibition at 32 µM was determined as 26%, the inhibition at 160 µM stood at 97% and the inhibition at 390 µM was 93%.
Regarding `CCCCCCCCCCNC(=O)[C@@H]1CCCN1` [Compound 32, L-proline n-decyl amide], in the experiment on S. epidermidis, the “optical density” value is 0.175 and 0.244 and 0.207; the “biofilm prevention activity” value was “strong biofilm prevention activity”. Further, in experiment [1], the inhibition at 32 µM was -3%, the inhibition at 160 µM came out at 100% and the inhibition at 390 µM worked out at 97%. In experiment [2], the inhibition at 32 µM is 9%, the inhibition at 160 µM worked out at 55% and the inhibition at 390 µM stood at 95%.
On to `O=C(NCCCCCCCCCCCCNC(=O)[C@H]1CCCN1)[C@H]1CCCN1` [Compound 226, D-proline 1,12-diaminododecane bisamide], for which, in the experiment with S. epidermidis, the “optical density” value is 0.202 and 0.269 and 0.147; the “biofilm prevention activity” value is on record as “strong biofilm prevention activity”. In experiment [1], the inhibition at 32 µM amounted to 24%, the inhibition at 160 µM came out at 101% and the inhibition at 390 µM was determined as 100%. For the same compound, in experiment [2], the inhibition at 32 µM is -19%, the inhibition at 160 µM came to 10% and the inhibition at 390 µM is 69%.

(Values after patent publication US7018642B2 (The Procter & Gamble Company, priority 2001, dated 2006).)
